Counter-ions that a name gives are not always drawn. Like-named read-outs stand apart in the source and are kept apart here.
Key:
[1] = calcium sulphate coins, solution 50 μl, 5 mg/ml dispensed; oven approx. 250° C., 0 to 15 minutes
Procedure: (§1) Calcium sulphate alpha hemihydrate (CaS) was obtained from Bo Ehrlander AB (Sweden). Clonidine hydrochloride was obtained from PCAS (Finland). Shaped silicon rubbers were used as molds for coins (diameter: 12 mm, thickness: 2 mm). The calcium sulphate was mixed with deionised water (Liquid/Powder ratio of 0.4 (w/w)) to form a homogenous paste, which was used to fill the rubber molds. When the paste was applied, the molds were set to dry for at least 12 h under ambient conditions.
Clonidine hydrochloride solution (50 μl, 5 mg/ml) was dispensed onto the calcium sulphate coins. When the solution was applied, the coins were set to dry for at least 12 h under ambient conditions.
The temperature was set to approximately 250° C.
(§2) Each coin was weighed and immersed into a beaker containing 200 ml of deionised water. […] The sample was characterized by Shimadzu LC-2030 (Germany) HPLC system with a Genesis C18 analytical column 4 μm (100×2.1 mm i.d.) with a mobile phase of acetonitrile/phosphoric acid, pH 3 (11/89). The wavelength was set to 220 nm.
The reference samples represent the amount of clonidine hydrochloride that was loaded before heat treatment.

[2] = Text: as §1, with “with powder of Clonidine hydrochloride (0.07 g Clonidine hydrochloride/g calcium sulphate) and” for “with”, “molds. Once” for “molds. When”, “paste had been” for “paste was”
The oven temperature was set to approximately 250° C.
as §2
The reference samples represent the amount of clonidine hydrochloride mg/g calcium sulphate that was loaded before heat treatment.

[3] = Oven heating of aluminium oxide ceramic discs loaded with ibuprofen; amount remaining by UV; assay type: physicochemical; details: Al2O3 discs, oven 250° C. for 15 minutes
Procedure: Ceramic discs comprising ibuprofen (IOL Chemicals and Pharmaceuticals Ltd, India) were prepared using aluminium oxide (Al2O3; Keranova, Sweden) as follows.
(§3) Ceramic discs (Al2O3) with different pore sizes (0.25, 1, 6, 15 and 30 μm) were prepared in two sizes: (i) 63 mm in diameter and 6.3 mm in thickness (pore sizes 0.25, 1 and 6 μm); and (ii) 48 mm in diameter and 6.3 mm in thickness (pore sizes 15 and 30 μm). The porosity was approximately 40% vol and the density 3.75 g/cm^3 for all discs according to product specification.
The discs (pore sizes 0.25, 1, 6, 15 and 30 μm) were soaked in a 400 ml in phosphate buffer with pH 7.4 (one phosphate buffer saline tablet (Sigma-Aldrich, USA) dissolved in 200 ml deionized water) with a concentration of 408.5 μg/ml ibuprofen for 24 hours. The discs were dried in room temperature for 24 hours. […] All discs were measured for concentration of ibuprofen in 400 ml phosphate buffer pH 7.4 at 37° C. (USP paddle method (paddle speed 50 rpm), VanKel 7025, Varian Inc, USA) and the concentration for ibuprofen was measured using a UV spectrophotometer Shimadzu 1800, Japan at a wavelength of 220 nm to determine the amount of ibuprofen in the ceramic discs. The amount of ibuprofen in control discs was measured after 15 hours (i.e. after maximum drug release) and in heat treated discs after 1.5 hours (i.e. the maximal amount drug was at this time point released).

[4] = calcium sulphate coins, nicotine solution 50 μl, 18 mg/ml dispensed
Text: Calcium sulphate coins were obtained as described in Example 3. For the indirect induction test a magnet was molded into the coin. Nicotine and nicotine solutions were supplied and applied, and nicotine levels were detected as described in Example 3.
Metal plate for induction cooker was obtained from Haneström (Sweden). Induction cooker Wilfa ICP-2000 was obtained from Media Markt (Sweden). Magnets (10*1 mm, Samarium Cobalt magnets, 0.4 kg pull) were obtained from first4magnets (UK). IR-thermometer (MS6520A) was obtained from Mastech (USA).
Heat treatment by indirect induction was carried out by placing a metal plate onto the induction cooker. The ceramic coins containing a magnet was applied onto the metal plate and heated on maximum effect (exact temperature was not measured; see FIG. 10).

[5] = Al2O3 discs, oven 188° C. for 15 minutes
Procedure: as §3
The discs were dried in room temperature for 24 hours. The discs were heated in an oven at 188° C. for 15 minutes, the control discs were not heated.

[6] = calcium sulphate rods soaked 24 hours in pure nicotine; heated 5*10 sec.; max 315° C., 6 W
Text: Aluminium oxide ceramic rods and calcium sulphate rods were obtained as described in Example 3. Nicotine and nicotine solutions were supplied and applied, and nicotine levels were detected as described in Example 3.
Samples were heated using a prototype e-cigarette device (X-Cube II, Smoke) obtained from Devex Mekatronik AB (Sweden). The device is derived from the commercially available e-cigarette X-Cube.
The sample in the device was heated up by a coil that is wrapped around the sample.
The end of the device was connected to a vial via a silicon hose. The vial contained 1 ml of deionised water. To simulate smoking a rod was put into the device and puffing was performed. Puffing involves a sequence of 5 puffs that are each 10 seconds long. After puffing, the hose was removed and flushed with the water. The water was analysed for concentration of nicotine.

[7] = for amount of nicotine detected in the reference sample (not heated) / nicotine detected in coins after heating versus reference: pure nicotine (20 mg) dispensed; for amount of nicotine detected in the reference sample (not heated): dried 24 hours
[8] = Liquid/Powder 0.4 (w/w)
Procedure: as §1, with “(Sweden).” for “(Sweden). Clonidine hydrochloride was obtained from PCAS (Finland).”, “a nicotine solution with a concentration of 5 or 20 mg/ml of nicotine” for “deionised water”, “filled in” for “used to fill”, “Once” for “When”
The temperature was set to approximately 200° C.
The sample was characterized by UV-spectrophotometer at a wavelength of 219 nm. The amount nicotine in the samples were then calculated.

[9] = Oven heating of Al2O3 rods soaked in sumatriptan succinate solution; assay type: physicochemical
Text: Aluminium oxide ceramic rods were obtained from […] (Sweden): […] Oven […] 218 was obtained from Wilfa, (Norway).

[10] = Oven heating of calcium sulphate coins pre-loaded with sumatriptan succinate; assay type: physicochemical; details: pre-loaded calcium sulphate coins (0.07 g/g calcium sulphate); oven approx. 250° C.
[11] = calcium sulphate rods soaked in pure nicotine, oven approx. 200° C.

## Clc1cccc(Cl)c1N=C1NCCN1 [clonidine hydrochloride]
[1]
  amount of clonidine hydrochloride present in the coins during heating: decreased significantly over time
[2]; calcium sulphate coins, 0.07 g clonidine hydrochloride/g calcium sulphate, coin approx. 0.3 g
  amount of clonidine hydrochloride contained in a coin: approximately 17 mg
[2]; pre-loaded calcium sulphate coins, oven approx. 250° C.
  time within which almost all of the clonidine hydrochloride was released when heated: ≤ 15 min

## CC(C)Cc1ccc(C(C)C(=O)O)cc1 (stereo not drawn) [ibuprofen]
[3]; pore sizes 0.25, 1, 6, 15 and 30 μm, all samples
  amount of ibuprofen remaining after heat treatment: zero
[3]
  degradation of ibuprofen on heating (changes in absorbance at other wavelengths): no significant degradation

## CN1CCCC1c1cccnc1 (stereo not drawn) [nicotine]
[4]; heated about 1 or about 5 minutes
  nicotine release on induction heating, unheated plate: Most of the nicotine was released within the first minute
[4]; plate at least 150° C., heated 5 seconds
  nicotine release on induction heating, pre-heated plate: a substantial quantity of nicotine was released
[5]; pore sizes 0.25, 6, 15 and 30 μm, all samples
  amount of nicotine remaining after heat treatment compared to pre-heat treatment control: very significantly reduced
[5]
  degradation of nicotine on heating (changes in absorbance at other wavelengths): no significant degradation
[6]
  nicotine release on heat treatment in e-cigarette device: a heat treatment in the device will result in a nicotine release
[7]; aluminium oxide rods soaked in 6 mg/ml nicotine solution (diluted e-juice) 24 hours, oven approx. 200° C.
  time within which almost all of the nicotine was released when heated: 5 to 10 min
[7]; aluminium oxide rods soaked in 6 mg/ml nicotine solution for 24 hours
  amount of nicotine the rods were able to absorb: approximately 135 μg nicotine/rod
[7]; calcium sulphate coins
  amount of nicotine detected in the reference sample (not heated): lower than 20 mg
[7]; calcium sulphate coins, oven approx. 200° C.
  nicotine detected in coins after heating versus reference: a lower release of nicotine was detected after heating
[7]; calcium sulphate rods soaked in pure nicotine for 24 hours
  amount of nicotine the rods were able to absorb: approximately 20 mg nicotine/rod
[7]; [11]
  nicotine release during heating: Most of the nicotine was released during heating
  nicotine release, 5 min versus 1 min of heating: a higher amount was released during 5 min of heating compared to 1 min of heating
[7]; geopolymer coins
  amount of nicotine detected in the reference sample (not heated): about 16 mg
[7]; geopolymer coins, oven approx. 200° C.
  nicotine detected in coins after heating versus reference: a lower release of nicotine was detected after heating
[8]; calcium sulphate coins mixed with 5 mg/ml nicotine solution
  amount of nicotine contained in the coins: approximately 180 μg
[8]; calcium sulphate coins mixed with 20 mg/ml nicotine solution
  amount of nicotine contained in the coins: ~390 µg

## CNS(=O)(=O)Cc1ccc2[nH]cc(CCN(C)C)c2c1 [sumatriptan succinate]
[9]; Al2O3 rods soaked in 20 mg/ml solution for 24 hours
  amount of sumatriptan succinate the rods were able to absorb: approximately 1 mg sumatriptan succinate/rod
[9]; Al2O3 rods soaked in 20 mg/ml solution, oven approx. 300° C.
  time within which almost all of the sumatriptan succinate was released when heated: 5 to 15 min
[10]
  time within which almost all of the sumatriptan succinate was released when heated: ≤ 15 min

Source: patent publication US11202871B2, “Devices for evaporation and inhalation of active agents” (Emplicure AB, priority 2016, dated 2021)
